pIC50: −log10 of the molar value.
Columns and labels:
[1] = biological target: T1, epidermal growth factor receptor (EGFR) (Homo sapiens, UniProt P00533)
[2] = biological target: T1, epidermal growth factor receptor (EGFR); test: EGF-induced EGFR autophosphorylation in A431 cells (Western blot), with washout reversibility assay; type: cell-based

T1 sequence (P00533 25-1210): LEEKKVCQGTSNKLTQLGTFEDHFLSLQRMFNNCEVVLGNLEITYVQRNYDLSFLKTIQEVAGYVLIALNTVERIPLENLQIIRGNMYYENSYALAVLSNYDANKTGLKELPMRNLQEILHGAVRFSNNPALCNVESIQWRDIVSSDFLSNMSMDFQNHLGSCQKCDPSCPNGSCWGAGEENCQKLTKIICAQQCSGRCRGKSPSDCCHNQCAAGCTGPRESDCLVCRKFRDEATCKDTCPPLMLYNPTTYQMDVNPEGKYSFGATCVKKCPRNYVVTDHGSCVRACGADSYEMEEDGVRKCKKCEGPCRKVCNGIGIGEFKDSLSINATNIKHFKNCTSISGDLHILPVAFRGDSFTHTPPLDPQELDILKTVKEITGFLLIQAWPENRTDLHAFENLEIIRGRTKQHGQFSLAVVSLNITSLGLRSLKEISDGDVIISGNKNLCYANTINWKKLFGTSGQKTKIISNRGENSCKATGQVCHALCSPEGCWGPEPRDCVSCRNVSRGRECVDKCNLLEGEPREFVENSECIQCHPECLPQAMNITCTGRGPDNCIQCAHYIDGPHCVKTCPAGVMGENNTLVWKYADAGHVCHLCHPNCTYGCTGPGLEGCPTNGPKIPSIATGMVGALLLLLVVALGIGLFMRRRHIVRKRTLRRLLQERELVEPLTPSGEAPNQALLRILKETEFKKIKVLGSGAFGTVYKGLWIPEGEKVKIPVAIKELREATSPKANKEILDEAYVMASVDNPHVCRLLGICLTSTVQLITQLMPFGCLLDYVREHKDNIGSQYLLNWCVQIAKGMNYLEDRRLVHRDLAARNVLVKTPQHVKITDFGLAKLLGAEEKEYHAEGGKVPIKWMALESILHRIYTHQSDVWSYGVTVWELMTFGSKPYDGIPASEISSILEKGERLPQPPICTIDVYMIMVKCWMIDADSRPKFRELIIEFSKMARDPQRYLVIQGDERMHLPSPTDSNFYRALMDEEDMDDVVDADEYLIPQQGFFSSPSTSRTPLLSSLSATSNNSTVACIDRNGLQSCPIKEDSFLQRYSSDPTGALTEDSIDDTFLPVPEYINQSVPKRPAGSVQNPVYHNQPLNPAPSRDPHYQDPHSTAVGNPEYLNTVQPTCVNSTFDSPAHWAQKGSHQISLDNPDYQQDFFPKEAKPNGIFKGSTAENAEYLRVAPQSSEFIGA

Structure (SMILES) | EGFR autophosphorylation in A431 cells at 30 μM, before and after washout (Weste) [1] | pIC50 [2]
CN(CO)/N=N/c1ccc2ncnc(Nc3cccc(Br)c3)c2c1 [RB14] | irreversible inhibition was observed in cells exposed to the daughter molecules, RB14 and ZR08 | –
CC(=O)OCN(C)/N=N/c1ccc2ncnc(Nc3cccc(Br)c3)c2c1 [RB24] | – | ~5.70
Nc1ccc2ncnc(Nc3cccc(Br)c3)c2c1 [RB10] | the naked inhibitor, RB10, was shown to have completely reversible inhibition of EGFR autophosphorylation | –

Source: paper PMC2747684, “Sustained antiproliferative mechanisms by RB24, a targeted precursor of multiple inhibitors of epidermal growth factor receptor and a DNA alkylating agent in the A431 epidermal carcinoma of the vulva cell line” (British Journal of Cancer, 2004)
